# Test results as given in patent US4153710A, “N-(4-[2-(pyrazole-1-carbonamide)-ethyl]-benzenesulphonyl)-urea” (Starogardzkie Zaklady Farmaceutyczne POLFA, priority 1976, dated 1979).
# Experiments:
# [1] = system: blood-glucose concentration; test: Decrease in blood-glucose concentration in rats after oral dose (Table 1; ED30 rats Table 2); assay type: in vivo; details: Rattus norvegicus, oral, read-out: Effective oral doses ED30
# Excerpt: (§1) The hypoglycemic activity of N-{4-[2-(pyrazole-1-carbonamide)-ethyl]-benzenesulphonyl}-ureas prepared according to the present invention can be noticed after their oral administration to mice, rats, rabbits and people and when determining the glucose concentration in blood with a known enzymatic method using glucose oxidase.
# The exemplary comparison of effective doses (ED30) and the effect of oral dose size of the compounds prepared according to the present invention with Glibornuride, which is distinguished by its high effectiveness and good tolerance when administered to people, on the glucose concentration in the blood of rats, is given in Table 1.
# [2] = system: blood-glucose concentration; test: ED30 oral hypoglycemic dose in rabbits (Table 2); assay type: in vivo; details: Oryctolagus cuniculus, read-out: Effective oral doses ED30
# Description: as §1
# (§2) (Table 2). […] It has been observed that even 9 hours after the administration of one dose of SPC-5002 to rats, the glucose level in blood was decreased, whereas in the case of Glibornuride the glucose level comes back to its normal value in 6 hours from the time of the administration.
# [3] = system: blood-glucose concentration; test: Blood-glucose time course up to 24 hours in rats (Table 3); assay type: in vivo; details: for glucose concentration in blood, average: oral 4 mg/kg
# Description: as §1, §2
# The comparison of SPC-5002 and Glibornuride effect on changes in
# concentration of rats in time up to 24 hours from the moment of the
# in an oral dose containing 4 mg/kg body weight
# [4] = Oral toxicity in rats (LD50); details: rat, in vivo
# [5] = Oral toxicity in mice (LD50); details: mouse, in vivo
# [6] = Acute, subacute and protracted toxicity (6 months); assay type: in vivo
# [7] = system: oxygen consumption in mitochondria of a rat's liver; test: Oxygen consumption of rat liver mitochondria; assay type: biochemical
# Description: 2-oxoglutaran 2 mM, ADP 1 mM, mitochondria | protein 4 mg/m. […] The
# [8] = system: oxidizing phosphorylation in mitochondria of a rat's liver; test: Oxidizing phosphorylation of rat liver mitochondria; assay type: biochemical
# Description: 2-oxoglutaran 2 mM, ADP 1 mM, mitochondria | protein 4 mg/m. […] The | oxidizing phosphorylation speed was determined by means of the measuremen | of hydrogen ion consumption. The calcium transmission to mitochondria was […]
# [9] = system: calcium transmission in mitochondria of a rat's liver; test: Calcium transmission to rat liver mitochondria; assay type: biochemical; details: for % of inhibition, calcium transmission: medium with CaCl 300 nmoles/ml
# Description: Sucrose 170mM, KCl 10 mM, MgCl2 […], K2 HPO 5 mM, EGTA 0.01 mM
# 2-oxoglutaran 2 mM, ADP 1 mM, mitochondria
# protein 4 mg/m. Temperature 25° C.
# of hydrogen ion consumption. The calcium transmission to mitochondria was
# studied with two methods; in a continuous way with a Radiometer calcium
# electrode type F2112 or with an isotopic method.
# *The medium contained Ca Cl 300 nmoles/ml.
# glucose concentration = test: Blood glucose in normal men after a meal (Table 8); assay type: in vivo; details: for blood-glycose level decrease: normal men after meal; for Glucose concentration / % of changes in glucose concentration: meal, oral 10 mg
# Description: as §1
# (§3) When administered to normal men volunteers it has been stated that 60 minutes after the administration of SPC-5002 a 5 mg oral dose causes the decrease in blood-glucose of 28% in comparision to the starting value and after 90 minutes it reaches 33% (Table 7). Whereas Glibornuride employed in a dose 2.5 times as big on peak of its activity decreases the glucose blood level only of 19%. It can clearly be noticed that there is a positive correlation between the glycemic and insulin level curves. Both examined preparations cause a significant decrease in free fatty acids in blood. […] 60 and 90 minutes after the SPC-5002 administration, the blood-glycose level is decreased to 33 and 52% while in the Placebo group it is maintained in the range of 13-14%.
# (§4) The comparison of glucose concentration changes in voluntary-normal men
# (§5) eaten a meal and the oral administration of 10 mg of SPC-5002 or Placebo
# [10] = system: blood-glucose concentration; test: Hypoglycemic activity in three animal species versus Glibornuride; assay type: in vivo, mice, rats, rabbits; details: parenteral and oral
# Description: as §1, §2
# insulin concentration [11] = test: Insulin in normal men volunteers (Table 7); assay type: in vivo; details: oral 5 mg SPC-5002 or 12.5 mg Glibornuride
# Description: as §3
# (§6) The comparison of glucose, insulin and free fatty acids concentration in
# (§7) normal men after the oral administration of 5 mg of SPC-5002 or 12.5 mg
# [12] = system: free fatty acids concentration; test: Free fatty acids in normal men volunteers (Table 7); assay type: in vivo; details: oral 5 mg SPC-5002 or 12.5 mg Glibornuride
# Description: as §3, §6, §7
# insulin concentration [13] = test: Insulin in normal men after a meal (Table 8); assay type: in vivo; details: for Insulin concentration: normal men, meal, oral 10 mg
# Description: as §3, §4, §5
smiles,measurement,setting,value
"Cc1ccn(C(=O)NCCc2ccc(S(=O)(=O)NC(=O)NC3CCCCC3)cc2)n1 [SPC-5002, N-{4-[2-(3-methylpyrazole-1-carbonamide)-ethyl]-benzenesulphonyl}-N'-cyclohexylourea]",ED30,[1],2.2 mg/kg
same,ED30,[2],5.5 mg/kg
same,duration of decreased blood glucose after one dose,[3]; one dose,≥ 9 h
same,duration of hypoglycemic activity relative to Glibornuride,[3]; one dose,longer hypoglycemic activity than the administration of Glibornuride
same,"glucose concentration in blood, average",[3]; 0 h,82 mg/100 cc
same,"glucose concentration in blood, average",[3]; 1 h,58 mg/100 cc
same,"glucose concentration in blood, average",[3]; 3 h,45 mg/100 cc
same,"glucose concentration in blood, average",[3]; 6 h,65 mg/100 cc
same,"glucose concentration in blood, average",[3]; 9 h,70 mg/100 cc
same,"glucose concentration in blood, average",[3]; 24 h,85 mg/100 cc
same,LD50,[4],> 15000 mg/kg
same,LD50,[5],> 20000 mg/kg
same,changes in haematopoietic system,[6]; 6 months administration,No changes in the haematopoietic system
same,effect on liver and kidneys,[6]; 6 months administration,did not handicap the activities of the liver and kidneys
same,general number of white blood corpuscles,[6]; 6 months administration,did not influence the general number of white blood corpuscles
same,toxicity,"[6]; acute, subacute and protracted toxicity",extremely low toxicity
same,"body weight, consumption of food and water",[6]; compared with control group,did not reveal any differences between the control group and the group under examination
same,effect on oxidation,[7]; 0.05 nM,no effect
same,"% of inhibition, oxygen consumption",[7]; concentration 0.05 n M,0%
same,"% of inhibition, oxygen consumption",[7]; concentration 0.1 n M,12%
same,"% of inhibition, oxygen consumption",[7]; concentration 0.3 n M,21%
same,"% of inhibition, oxygen consumption",[7]; concentration 0.5 n M,34%
same,"% of inhibition, oxygen consumption",[7]; concentration 0.7 n M,47%
same,"% of inhibition, oxygen consumption",[7]; concentration 1.0 n M,69%
same,Ki,[7]; rat liver mitochondria,750 µM
same,effect on oxidizing phosphorylation,[8]; 0.05 nM,no effect
same,"% of inhibition, oxidizing phosphorylation",[8]; concentration 0.05 n M,0%
same,"% of inhibition, oxidizing phosphorylation",[8]; concentration 0.1 n M,15%
same,"% of inhibition, oxidizing phosphorylation",[8]; concentration 0.3 n M,21%
same,"% of inhibition, oxidizing phosphorylation",[8]; concentration 0.5 n M,38%
same,"% of inhibition, oxidizing phosphorylation",[8]; concentration 0.7 n M,63%
same,"% of inhibition, oxidizing phosphorylation",[8]; concentration 1.0 n M,74%
same,Ki,[8]; rat liver mitochondria,600 µM
same,"% of inhibition, calcium transmission",[9]; concentration 0.05 n M,8%
same,Calcium transmission / Oxide consumption (ratio of inhibition),[9]; concentration 0.1 n M,1.75
same,"% of inhibition, calcium transmission",[9]; concentration 0.1 n M,21%
same,Calcium transmission / Oxide consumption (ratio of inhibition),[9]; concentration 0.3 n M,1.42
same,"% of inhibition, calcium transmission",[9]; concentration 0.3 n M,30%
same,Calcium transmission / Oxide consumption (ratio of inhibition),[9]; concentration 0.5 n M,1.55
same,"% of inhibition, calcium transmission",[9]; concentration 0.5 n M,53%
same,Calcium transmission / Oxide consumption (ratio of inhibition),[9]; concentration 1.0 n M,0.99
same,"% of inhibition, calcium transmission",[9]; concentration 1.0 n M,68%
same,Ki,[9]; rat liver mitochondria,450 µM
same,preference of inhibition: calcium transmission versus oxidizing processes,[9]; rat liver mitochondria,preferential inhibiting of calcium transmission
same,"Ki ratio SPC-5002 / Glibenclamide, calcium transmission",[9]; ratio of inhibitor constants,10
same,blood-glycose level decrease,glucose concentration; 60 minutes,33%
same,blood-glycose level decrease,glucose concentration; 90 minutes,52%
same,glucose increase vs starting value,"glucose concentration; normal men, 30 minutes after the meal",34%
same,Glucose concentration,"glucose concentration; normal men, 0 mins (empty stomach)",89 mg/100 cc
same,% of changes in glucose concentration,"glucose concentration; normal men, 30 mins",+34%
same,Glucose concentration,"glucose concentration; normal men, 30 mins",119 mg/100 cc
same,% of changes in glucose concentration,"glucose concentration; normal men, 60 mins",-33%
same,Glucose concentration,"glucose concentration; normal men, 60 mins",60 mg/100 cc
same,% of changes in glucose concentration,"glucose concentration; normal men, 90 mins",-52%
same,Glucose concentration,"glucose concentration; normal men, 90 mins",43 mg/100 cc
same,% of changes in glucose concentration,"glucose concentration; normal men, 120 mins",-21%
same,Glucose concentration,"glucose concentration; normal men, 120 mins",70 mg/100 cc
same,% of changes in glucose concentration,"glucose concentration; normal men, 180 mins",0%
same,Glucose concentration,"glucose concentration; normal men, 180 mins",89 mg/100 cc
same,hypoglycemic activity relative to Glibornuride,[10],about twice as active as Glibornuride
same,Insulin concentration,insulin concentration [11]; 0 mins (empty stomach),4.0 μU/cc
same,Insulin concentration,insulin concentration [11]; 30 mins,9.2 μU/cc
same,Insulin concentration,insulin concentration [11]; 60 mins,13.5 μU/cc
same,Insulin concentration,insulin concentration [11]; 90 mins,7.3 μU/cc
same,Insulin concentration,insulin concentration [11]; 120 mins,5.0 μU/cc
same,Insulin concentration,insulin concentration [11]; 180 mins,3.2 μU/cc
same,Free fatty acids concentration,[12]; 0 mins (empty stomach),0.63 mEq/1000 cc
same,Free fatty acids concentration,[12]; 30 mins,0.48 mEq/1000 cc
same,Free fatty acids concentration,[12]; 60 mins,0.46 mEq/1000 cc
same,Free fatty acids concentration,[12]; 90 mins,0.48 mEq/1000 cc
same,Free fatty acids concentration,[12]; 120 mins,0.51 mEq/1000 cc
same,Free fatty acids concentration,[12]; 180 mins,0.52 mEq/1000 cc
same,insulin concentration relative to placebo group,"insulin concentration [13]; normal men after meal, 60 minutes",twice as high as that in the placebo group
same,Insulin concentration,insulin concentration [13]; 0 mins (empty stomach),7 μU/cc
same,Insulin concentration,insulin concentration [13]; 30 mins,50 μU/cc
same,Insulin concentration,insulin concentration [13]; 60 mins,55 μU/cc
same,Insulin concentration,insulin concentration [13]; 90 mins,17 μU/cc
same,Insulin concentration,insulin concentration [13]; 120 mins,8 μU/cc
same,Insulin concentration,insulin concentration [13]; 180 mins,8 μU/cc
